Source: ChEMBL document CHEMBL1148526, “Facile purification of honokiol and its antiviral and cytotoxic properties” (J Med Chem, 2006)

Legend:
Type in all cases: functional
[1] = system: CCRF-CEM; assay: Cytotoxicity against human CEM cells
[2] = system: Vero; assay: Cytotoxicity against Vero cells; settings: Chlorocebus sabaeus
[3] = system: PBMC; assay: Cytotoxicity against human PBM cells
[4] = system: PBMC; assay: Selectivity index of antiviral vs cytoxic activity in PBM cells (CC50/EC50)

Compound | CC50 [1] | CC50 [2] | CC50 [3] | Ratio CC50/EC50 [4]
C=CCc1ccc(O)c(-c2cc(CC=C)ccc2O)c1 [MAGNOLOL] | 99.5 µM | 50.6 µM | 38.6 µM | 
C=CCc1ccc(O)c(-c2ccc(O)c(CC=C)c2)c1 [HONOKIOL] | 10.9 µM | 22.5 µM | 16.1 µM | 5
